Source: article PMC6208284 (Phytotherapy Research, 2018)

Experiments:
[1] = tested on: Leishmania tarentolae promastigotes (LtP); assay: Low molecular thiols in LtP, CMFDA method; format: cell-based; settings: 5 hr incubation at 26 °C, PBS/glucose
Experimental: LtP were centrifuged twice (1,800 g, 10 min, 20 °C), the cell pellets were resuspended in PBS/glucose (15 mM), and the cell number was adjusted to 1 × 10^7/ml. Aliquots (250 μl) were added to 96‐well plates (black, nontreated plates), along with compound stocks (keeping a maximum of 2% DMSO). Following a 5‐hr incubation at 26 °C, plates were centrifuged (1,800 g, 10 min, 20 °C), and 200 μl of supernatant was removed. To the remaining cell suspension, 100 μl of CMFDA in PBS was added giving a final concentration of 5 μM. After gentle shaking, the cells were incubated for 15 min at 37 °C in the dark. The fluorescence of the methyl fluorescein (MF)‐thiol adduct (Sarkar, Mandal, Singh, Sundar, & Chatterjee, 2009) was measured at 15, 30, 45, and 60 min at 485 nm (excitation wavelength) and 530 nm (emission wavelength) using a plate reader (PerkinElmer Enspire, Germany). The OD600 nm was determined for cell count, and the measured fluorescence intensity was normalized to the cell number. Three replicate measurements were performed for each condition.

[2] = tested on: Leishmania tarentolae promastigotes (LtP); assay: Superoxide radical detection in LtP by CMH/ESR; format: cell-based; settings: for CM● formation (superoxide radicals) in LtP: 100 μM compound, immediate, with DFO and DTPA
Experimental: Detection of superoxide radicals was performed using CMH as reaction partner and measuring the formed stable nitroxyl radicals by electron spin resonance (ESR) spectroscopy. Measurements were performed in PBS (136 mM NaCl, 1.15 mM KH2PO4, 14 mM Na2HPO4, and 2.7 mM KCl, pH 7.4) containing 15 mM glucose, 400 μM CMH, and 100 μM DFO (desferrioxamine mesylate) and 25 μM DTPA. Usually, these assays are performed in the presence of iron chelators (DFO and DTPA) to prevent CMH interaction with free Fe^3+ leading to CM^● unrelated to superoxide radicals. Before the measurements, LtP suspensions were washed twice with PBS to remove the medium. Typical experiments contained 5 × 10^8 LtP cells/ml. Stock solutions of EO compounds dissolved in DMSO were added. The influence of Asc (6–700 μM) on the CMH oxidation rate by LtP was assessed immediately and after prolonged incubation time (1 hr between Asc and CMH addition). The influence of iron‐dependent Asc activation in LtP on CMH oxidation was studied in the absence of iron chelators DFO and DTPA. Prior to the ESR measurement, 400 μM CMH was added. Afterwards, 17 μl of suspension was aspirated in gas‐permeable Teflon tubes (ID 0.7 mm). This capillary tube was placed in the resonator of the ESR instrument (Bruker EMX, split ring MD5, Germany), and 10 sequential measurements were performed. The following instrument settings were used: microwave frequency 9.682 GHz, modulation frequency 100 kHz, modulation amplitude 1 G, time constant 0.082 s, center field 3,446 G, scan rate 71 G/min, sweep width 100 G, scan time 84 s, and attenuation CMH: 7.96 × 10^3. From the ESR spectra, the middle peak intensity was retrieved, and concentrations of oxidized CMH were obtained by comparison with a standard curve prepared from 3‐carboxy‐proxyl solutions with defined concentrations. Four replicate measurements were performed for each condition.

[3] = set-up: method as in Rappoport & Frankel, 1967; settings: ref Rappoport & Frankel, 1967; cited from earlier work
[4] = tested on: Leishmania amazonensis promastigotes (LaP); set-up: method as in Monzote, Garcia, et al., 2014; settings: after 72 hr of incubation; ref Monzote, Garcia, et al., 2014; cited from earlier work
[5] = tested on: Leishmania tarentolae promastigotes (LtP); assay: Mitochondrial coupling (RCR) in LtP, Clark-type electrode, short- and long-term incubation; format: cell-based; settings: 200 μM
Experimental: Direct inhibitors of mitochondrial ETC instantaneously influence mitochondrial oxygen consumption. To assay the effect of EO compounds on oxygen consumption of LtP, a Clark‐type oxygen electrode (Hansatech, Germany) and software MCREC were used. LtP at approximately 10^8 cells/ml in YEM (25 °C) were added and treated with increasing concentrations of EO compounds between 10 and 200 μM and for EO 5.6–89.6 μg/ml. Each concentration was assayed in quadruplicates, and the results were expressed as percentage of oxygen consumption in comparison with the untreated control LtP. The highest concentration of the vehicle (1% DMSO) caused only 2% inhibition. The uncoupling effect in short‐term and long‐term (0, 6, and 24 hr) incubations with Asc (200 μM) was studied in Oligo‐inhibited (5 μM) and uncoupler‐stimulated (0.5 μM CCCP) LtP in Schneider's medium supplemented with 6 μM hemin. Four replicates were performed for each concentration.

In the case of `C=C1CC[C@H]2O[C@]2(C)CC[C@@H]2[C@@H]1CC2(C)C` [Caryo, caryophyllene oxide], the “Low molecular thiol status (rate of thiol‐MF adduct formation)” value [1] is reported as “decrease” and the “CM● formation (superoxide radicals) in LtP” value [2] is reported as “only slightly increased”.
In the case of `Cc1ccc(C(C)C)cc1O` [Car, carvacrol], the pKa value [3] is given as “around 10”.
In the case of `CC(C)C12C=CC(C)(CC1)OO2` (centres unmarked) [Asc, ascaridole], the “Membrane potential of LaP (JC‐1)” value [4] is given as “decrease”, the “Effect on mitochondrial coupling in LtP” value ([5]; immediately after addition) is given as “only little effects” and the “RCR with respect to vehicle‐treated LtP” value ([5]; prolonged incubation (6 and 24 hr)) is given as “declined”. For the same compound, the “CM● formation (superoxide radicals) in LtP” value [2] was “only slightly increased” and the “CMH oxidation (superoxide radical formation) triggered in LtP” value ([2]; Asc 6–700 μM, 0 hr vs 1 hr incubation, with/without iron chelators) was “increasingly effective upon prolonged incubation and in the absence of iron chelators”.
